The target of one series is NR1a/NR2B (Rattus norvegicus, UniProt P35439+Q00960). Nature of the series: Electrophysiological assay at NMDA receptor subunits expressed in Xenopus oocytes (two-electrode voltage clamp). Format: cell-based. As for the experimental part: The clones were transformed into appropriate host bacteria and plasmid preparations were made with conventional DNA purification techniques. A sample of each clone was linearized by restriction enzyme digestion […] was synthesized with T3 RNA polymerase. The cRNA was diluted to 400 ng/μL and stored in 1 μL aliquots at −80° C. until injection.
The Xenopus Oocyte Expression System. […] Follicle-enclosed oocytes were micro-injected with 1:1 mixtures of NR1A:NR2A, 2B or 2C.; injecting 1 to 10 ng of RNA encoding each receptor subunit. NR1A encoding RNA was injected alone at ˜20 ng. Oocytes were stored in Barth's medium containing (in mM): NaCl, 88; KCl, 1; CaCl2, 0.41; Ca (NO3)2, 0.33; MgSO4, 0.82; NaHCO3, 2.4; HEPES 5, pH 7.4, with 0.11 mg/ml gentamicin sulphate. While oocytes were still surrounded by enveloping ovarian tissues, the Barth's medium was supplemented with 0.1% bovine serum.
Drugs were applied by bath perfusion. Using oocytes expressing different subunit combinations of NMDA receptor, NMDA currents were activated by co-application of glutamate (100 μM) and glycine (1-100 μM). Inhibitory potency of the novel antagonists was assessed on responses elicited by fixed concentrations of glutamate and glycine, by measuring reductions in current induced by progressively increasing concentrations of antagonist.
Concentration-inhibition curves were fit with Equation 1. […] For incomplete curves analysis by fitting was unreliable and IC50 values were calculated by simple regression over linear portions of the curves (Origin: Microcal Software).
In general terms: In two-electrode clamp one electrode senses voltage and the other passes current.

The test system of a further series is Alpha 1. Nature of the series: Alpha 1 (Table 4, no method given). Format: binding. Particulars: read-out: Alpha 1 cocn IC50.
Another series concerns the target D2 (Homo sapiens, UniProt P14416). Kind of series: D2 Raclopride (Table 4, no method given). Format: binding.
[1] abbreviates: Table 4, cloned rat NMDA receptor subunits in Xenopus oocytes, read-out: NR1a/NR2B Oocyte IC50.
The mark [2] stands for this setting: Table 2, head names no subunit, electrophysiological assay results, read-out: IC50.

Read-outs that look alike come from different tables or passages of the source.

Sequence of D2 (P14416 whole entry): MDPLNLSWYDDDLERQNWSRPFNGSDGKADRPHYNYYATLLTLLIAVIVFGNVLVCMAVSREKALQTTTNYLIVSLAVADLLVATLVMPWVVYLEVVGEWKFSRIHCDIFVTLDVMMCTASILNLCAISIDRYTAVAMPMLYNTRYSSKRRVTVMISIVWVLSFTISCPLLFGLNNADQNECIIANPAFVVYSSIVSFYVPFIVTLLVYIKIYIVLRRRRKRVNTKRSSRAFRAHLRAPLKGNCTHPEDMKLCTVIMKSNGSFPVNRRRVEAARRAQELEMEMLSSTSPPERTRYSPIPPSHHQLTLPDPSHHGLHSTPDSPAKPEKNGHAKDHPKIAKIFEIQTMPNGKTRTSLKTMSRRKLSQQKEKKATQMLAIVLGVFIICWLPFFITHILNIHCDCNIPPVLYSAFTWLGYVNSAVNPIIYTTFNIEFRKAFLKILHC
Sequence of NR1a/NR2B (Q00960 27-1482, other chains not shown): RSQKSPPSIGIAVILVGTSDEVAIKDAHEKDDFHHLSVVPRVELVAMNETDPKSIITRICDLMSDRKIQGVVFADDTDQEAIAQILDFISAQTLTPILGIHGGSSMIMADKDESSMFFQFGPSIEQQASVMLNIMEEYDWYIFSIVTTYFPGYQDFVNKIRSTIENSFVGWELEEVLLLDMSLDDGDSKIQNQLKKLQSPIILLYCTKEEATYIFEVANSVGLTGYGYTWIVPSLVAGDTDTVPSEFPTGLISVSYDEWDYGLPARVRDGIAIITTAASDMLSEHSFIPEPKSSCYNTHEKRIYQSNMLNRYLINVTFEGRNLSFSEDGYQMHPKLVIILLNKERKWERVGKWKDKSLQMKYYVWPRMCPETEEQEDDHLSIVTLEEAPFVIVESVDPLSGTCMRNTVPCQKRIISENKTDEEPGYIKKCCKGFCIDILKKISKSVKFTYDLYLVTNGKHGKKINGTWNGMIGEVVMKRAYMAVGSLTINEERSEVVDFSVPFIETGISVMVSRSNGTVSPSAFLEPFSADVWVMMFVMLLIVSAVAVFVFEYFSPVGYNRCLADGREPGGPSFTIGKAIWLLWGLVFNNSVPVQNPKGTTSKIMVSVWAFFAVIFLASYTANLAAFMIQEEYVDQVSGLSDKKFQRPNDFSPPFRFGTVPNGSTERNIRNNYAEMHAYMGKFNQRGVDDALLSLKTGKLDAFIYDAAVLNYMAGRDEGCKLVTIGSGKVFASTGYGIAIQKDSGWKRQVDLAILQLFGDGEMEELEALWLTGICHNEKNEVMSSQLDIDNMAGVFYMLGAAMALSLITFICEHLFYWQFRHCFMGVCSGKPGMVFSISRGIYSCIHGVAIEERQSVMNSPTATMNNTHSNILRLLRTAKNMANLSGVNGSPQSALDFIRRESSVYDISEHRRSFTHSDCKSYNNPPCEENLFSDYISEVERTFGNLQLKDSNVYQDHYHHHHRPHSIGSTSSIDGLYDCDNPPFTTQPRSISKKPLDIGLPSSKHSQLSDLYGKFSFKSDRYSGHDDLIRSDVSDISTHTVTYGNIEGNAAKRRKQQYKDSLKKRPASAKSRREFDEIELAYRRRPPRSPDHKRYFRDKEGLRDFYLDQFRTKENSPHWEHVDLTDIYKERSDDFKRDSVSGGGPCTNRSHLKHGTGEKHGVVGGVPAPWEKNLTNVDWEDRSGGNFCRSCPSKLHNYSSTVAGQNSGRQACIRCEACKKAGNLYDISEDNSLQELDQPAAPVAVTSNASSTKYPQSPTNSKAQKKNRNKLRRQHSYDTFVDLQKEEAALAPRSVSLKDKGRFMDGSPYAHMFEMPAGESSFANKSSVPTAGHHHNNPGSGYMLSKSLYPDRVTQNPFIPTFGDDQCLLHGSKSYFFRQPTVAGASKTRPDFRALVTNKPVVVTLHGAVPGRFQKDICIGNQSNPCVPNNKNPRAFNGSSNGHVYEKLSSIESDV

Regarding `Oc1ccc([C@H]2CC[C@@H](NCCc3ccc(F)cc3)CC2)cc1` [Example 5a, cis-4-{4-[2-(4-Fluorophenyl)ethylamino]cyclohexyl}phenol], the IC50 worked out at 1200 nM on NR1a/NR2B (setting [1]), 10000 nM in the series with Alpha 1 and 2700 nM against D2.
Turning to `COc1ccc(CCN[C@H]2CC[C@@H](c3ccc(O)cc3)CC2)cc1` [Example 8a, cis-4-{4-[2-(4-Methoxyphenyl)ethylamino]cyclohexyl}phenol], the IC50 on NR1a/NR2B (setting [1]) came out at 2400 nM; in the series on Alpha 1, 9200 nM; on D2 it was 5000 nM.
On to `COc1ccc(CCN[C@H]2CC[C@H](c3ccc(O)cc3)CC2)cc1` [Example 8b, trans-4-{4-[2-(4-Methoxyphenyl)ethylamino]cyclohexyl}phenol], for which the values for the IC50 on NR1a/NR2B (setting [1]), in the series on Alpha 1 and at D2 were 240 nM, 5100 nM and 1900 nM, respectively.
For `C[C@@H](Cc1ccccc1)N[C@H]1CC[C@H](c2ccc(O)cc2)CC1` [Example 13, trans-4-[4-((S)-1-Methyl-2-phenylethylamino)cyclohexyl]phenol], the melting point is 183 to 187 °C. Also, on NR1a/NR2B (setting [2]), the IC50 came to 16000 nM.
Compound `CC(=O)N(Cc1ccccc1)[C@H]1CC[C@H](c2ccc(O)cc2)CC1` [Example 16, trans-N-Benzyl-N-[4-(4-hydroxyphenyl)cyclohexyl]acetamide] returned a melting point of 227 to 235 °C. For the same compound, the IC50 on NR1a/NR2B (setting [2]) was 200000 nM.
For `CC(=O)N(CCCc1ccccc1)[C@H]1CC[C@H](c2ccc(O)cc2)CC1` [Example 17, trans-N-[4-(4-Hydroxyphenyl)cyclohexyl]-N-(3-phenylpropyl)acetamide], in that order: 175 to 180 °C and 4400 nM.
For `COC(=O)N(CCCc1ccccc1)[C@H]1CC[C@H](c2ccc(O)cc2)CC1` [Example 18, Trans-N-[4-(4-Hydroxyphenyl)cyclohexyl]-N-(3-phenylpropyl)carbamic acid methyl ester], the melting point was in the range of 128 to 133 °C. Further, at NR1a/NR2B (setting [2]), the IC50 was determined as 50 nM.
Regarding `COC(=O)N(Cc1ccccc1)[C@H]1CC[C@H](c2ccc(O)cc2)CC1` [Example 19, Trans-N-benzyl-N-[4-(4-hydroxyphenyl)cyclohexyl]carbamic acid methyl ester], the melting point was in the range of 61 to 66 °C. For the same compound, the IC50 at NR1a/NR2B (setting [2]) is 240000 nM.
As to `O=C(CCc1ccccc1)N[C@H]1CC[C@H](c2ccc(O)cc2)CC1` [Example 21, Trans-N-[4-(4-Hydroxyphenyl)cyclohexyl]-3-phenylpropionamide], the melting point fell in the range of 201 to 206 °C. Moreover, the IC50 at NR1a/NR2B (setting [2]) is 70 nM.
For `CC(C)(Oc1ccccc1)C(=O)N[C@H]1CC[C@H](c2ccc(O)cc2)CC1` [Example 22, Trans-N-[4-(4-Hydroxyphenyl)cyclohexyl]-2-methyl-2-phenoxy-propionamide], in that order: 114 to 117 °C and 301000 nM.
With `COc1ccc(CCCN[C@H]2CC[C@H](c3ccc(O)cc3)CC2)cc1` [Example 28, Trans-4-{4-[3-(4-methoxyphenyl)propylamino]cyclohexyl}phenol], the IC50 was 70 nM on NR1a/NR2B (setting [1]), 2300 nM in the series with Alpha 1 and 2970 nM at D2.

As usually defined, the melting point is the temperature of the solid-liquid transition.

Source of the values: patent US6919377B2, “Cyclohexylamine derivative as subtype selective NMDA receptor antagonists” (Warner Lambert Company LLC, priority 2000, dated 2005).
